# Reference: patent US9598424B2 (Takeda Pharmaceutical Company Limited, priority 2014, dated 2017)
# Legend:
# Full length human TBK1 = target: T1, Full length human TBK1 (Homo sapiens, UniProt Q9UHD2); test: Inhibition of TBK1 Enzyme (Caliper microfluidic assay); type: biochemical; conditions: 25 μM ATP, 60 min at RT; -log(IC50), IC50 molar; read-out: TBK1 Inhibition (pIC50) (converted)
# T1 construct: Full length human TBK1 with an N-terminal His-tag; His-tag (N); made in house; host or cells: Sf9 insect cells (baculovirus, pFastBac1)
# T1 sequence (Q9UHD2 1-729): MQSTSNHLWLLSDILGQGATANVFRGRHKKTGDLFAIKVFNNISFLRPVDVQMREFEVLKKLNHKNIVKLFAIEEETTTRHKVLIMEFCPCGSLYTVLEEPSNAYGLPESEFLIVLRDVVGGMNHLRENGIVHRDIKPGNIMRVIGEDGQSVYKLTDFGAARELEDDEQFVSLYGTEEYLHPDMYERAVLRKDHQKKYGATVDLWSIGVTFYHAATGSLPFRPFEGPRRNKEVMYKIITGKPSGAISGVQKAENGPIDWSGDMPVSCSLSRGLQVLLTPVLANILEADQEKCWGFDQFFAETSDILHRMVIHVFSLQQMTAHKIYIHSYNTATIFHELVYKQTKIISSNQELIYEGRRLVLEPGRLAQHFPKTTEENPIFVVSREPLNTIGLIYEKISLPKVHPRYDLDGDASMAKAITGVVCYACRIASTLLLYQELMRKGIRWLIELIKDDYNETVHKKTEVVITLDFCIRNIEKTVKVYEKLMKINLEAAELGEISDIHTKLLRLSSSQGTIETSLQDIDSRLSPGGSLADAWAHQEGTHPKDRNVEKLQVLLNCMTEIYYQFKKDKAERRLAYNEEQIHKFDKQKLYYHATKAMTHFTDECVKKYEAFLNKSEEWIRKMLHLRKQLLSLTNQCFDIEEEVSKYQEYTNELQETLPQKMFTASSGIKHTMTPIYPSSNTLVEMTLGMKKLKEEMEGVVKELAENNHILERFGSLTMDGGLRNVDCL
# Experimental: Full length human TBK1 with an N-terminal His-tag was cloned into the pFastBacl vector and was transfected into Sf9 cells. 72 hours later the virus was harvested and amplified through two additional rounds of infections. Then 400 ml of the resulting virus stock was used to infect 10L of Sf9 cells at a density of 2×10^6 cells/ml. Cell pellets were harvested 48 hours post infection and were lysed by freeze-thaw, homogenization and sonication in binding buffer (25 mM Tris pH7.6, 1 M NaCl, 10 mM imidazole, 0.5 mM TCEP) plus 0.1% Triton X-100 and complete protease inhibitor cocktail. The lysate was spun and the supernatant was purified with a HisTrap FF crude and a Superdex 200 pg column.
# TBK1 inhibition is determined using a 384 well plate format in buffer containing 20 mM Hepes, pH 7.4, 10 mM MgCl2, 1 mM EDTA, 0.01% Brij-L23, 1 mM DTT. Each test compound is prepared in DMSO using 2.5-fold serial dilutions for 11 data points, which are added to the buffer so that each dilution contains 1% DMSO. To each well is added 2 μL of 1 μm 5FAM-DRHDSGLDSMKDE-NH2 (in buffer), 2 μL of diluted test compound (1% DMSO in buffer), and 5 μL of 3 nM TBK1 and 25 μM ATP (in buffer). The reaction mixture is incubated at RT for 60 min, and quenched by adding 20 mM Hepes, pH 7.4, 10 mM MgCl2, 1 mM EDTA, 0.01% Brij-L23, 1 mM DTT+25 mM EDTA. To quantify the fluorescent-labeled substrate and product following reaction, the test plate is loaded on a Caliper LC-3000, which measures percent of conversion by microfluidic-based separation. Corresponding IC50 values are calculated by non-linear curve fitting of the compound concentrations and percent of inhibition to the standard IC50 equation and reported as pIC50, i.e., −log(IC50), where IC50 is the molar concentration.
# TBK1 = target: T2, TBK1 (Homo sapiens, UniProt Q9UHD2); test: Inhibition of TBK1 in Cells (TLR3 driven ISRE β-lactamase reporter assay); type: cell-based; conditions: poly IC-LMW stimulation 16 hrs; -log(EC50), EC50 molar; read-out: Inhibition of TBK1 in cells pEC50 (EC) (converted)
# T2 construct: host or cells: RA1-ISRE beta-lactamase reporter cells
# T2 sequence (Q9UHD2 1-729): T1 sequence (Q9UHD2 1-729)
# Experimental: TBK1 inhibition is determined using a TLR3 driven RA1-ISRE β-lacatamase reporter assay (Life Technologies). In the assay 50,000 cells/well are plated in black clear bottom 384 well plate. Each test compound is prepared in DMSO using 2.5-fold serial dilutions for 11 data points, which are then added to the media. Cells are stimulated with 0.15 mg/ml poly IC-LMW (Invivogen) for 16 hrs. Reporter activity is detected using the LiveBLAzer-FRET B/G CCF4-AM substrate (Life Technologies) and the plate is read using the Spectramax M5 instrument. Corresponding EC50 values are calculated by non-linear curve fitting of the compound concentrations and percent of inhibition to the standard EC50 equation and reported as pEC50, i.e., −log(EC50), where EC50 is the molar concentration.
IC50 (Full length human TBK1) [µM],EC50 (TBK1) [µM],SMILES
0.0631,1.55,"O=C(NC1CCCOC1)c1nc(-c2ccc3nc(NC(=O)C4CC4)cn3c2)cs1 (stereo in doubt) [Example 88, (S)-4-(2-(cyclopropanecarboxamido)imidazo[1,2-a]pyridin-6-yl)-N-(tetrahydro-2H-pyran-3-yl)thiazole-2-carboxamide]"
0.01,0.794,"O=C(NCC(F)F)c1nc(-c2cn3cc(NC(=O)C4CC4)nc3cn2)cs1 [Example 5, 4-(2-(cyclopropanecarboxamido)imidazo[1,2-a]pyrazin-6-yl)-N-(2,2-difluoroethyl)thiazole-2-carboxamide]"
0.00794,0.355,"O=C(NCC(F)(F)F)c1nc(-c2cn3cc(NC(=O)C4CC4)nc3cn2)cs1 [Example 6, 4-(2-(cyclopropanecarboxamido)imidazo[1,2-a]pyrazin-6-yl)-N-(2,2,2-trifluoroethyl)thiazole-2-carboxamide]"
0.2,9.12,"O=C(NCC(F)F)c1nc(-c2ccc3nc(NC(=O)C4CC4)cn3n2)cs1 [Example 8, 4-(2-(cyclopropanecarboxamido)imidazo[1,2-b]pyridazin-6-yl)-N-(2,2-difluoroethyl)thiazole-2-carboxamide]"
0.01,0.229,"C[C@@H](NC(=O)c1nc(-c2ccc3nc(NC(=O)C4CC4)cn3c2)c[nH]1)C(F)(F)F [Example 9, 4-{2-cyclopropaneamidoimidazo[1,2-a]pyridin-6-yl}-N-[(2R)-1,1,1-trifluoropropan-2-yl]-1H-imidazole-2-carboxamide]"
0.316,> 50.1,"C[C@H](NC(=O)c1nc(-c2ccc3nc(NC(=O)C4CC4)cn3c2)c[nH]1)C(F)(F)F [Example 10, 4-{2-cyclopropaneamidoimidazo[1,2-a]pyridin-6-yl}-N-[(2S)-1,1,1-trifluoropropan-2-yl]-1H-imidazole-2-carboxamide]"
0.0631,0.813,"CC(F)(F)CNC(=O)c1nc(-c2ccc3nc(NC(=O)C4CC4)cn3c2)c[nH]1 [Example 11, 4-{2-cyclopropaneamidoimidazo[1,2-a]pyridin-6-yl}-N-(2,2-difluoropropyl)-1H-imidazole-2-carboxamide]"
0.02,0.955,"O=C(NCC(F)F)c1nc(-c2ccc3nc(NC(=O)C4CC4)cn3c2)c[nH]1 [Example 12, 4-{2-cyclopropaneamidoimidazo[1,2-a]pyridin-6-yl}-N-(2,2-difluoroethyl)-1H-imidazole-2-carboxamide]"
0.0794,2.95,"N#CCC(=O)Nc1cn2cc(-c3csc(C(=O)NCC(F)(F)F)c3)ccc2n1 [Example 17, 4-(2-(2-cyanoacetamido)imidazo[1,2-a]pyridin-6-yl)-N-(2,2,2-trifluoroethyl)thiophene-2-carboxamide]"
0.01,0.251,"O=C(NCC(F)F)c1cc(-c2ccc3nc(NC(=O)C4CC4)cn3n2)cs1 [Example 18, 4-(2-(cyclopropanecarboxamido)imidazo[1,2-b]pyridazin-6-yl)-N-(2,2-difluoroethyl)thiophene-2-carboxamide]"
0.00501,0.407,"O=C(NCC(F)F)c1cc(-c2cn3cc(NC(=O)C4CC4)nc3cn2)cs1 [Example 19, 4-(2-(cyclopropanecarboxamido)imidazo[1,2-a]pyrazin-6-yl)-N-(2,2-difluoroethyl)thiophene-2-carboxamide]"
0.501,–,"Cc1sc(C(=O)NCC(F)(F)F)nc1-c1ccc2nc(NC(=O)C3CC3)cn2n1 [Example 20, 4-(2-(cyclopropanecarboxamido)imidazo[1,2-b]pyridazin-6-yl)-5-methyl-N-(2,2,2-trifluoroethyl)thiazole-2-carboxamide]"
0.2,–,"O=C(NCC(F)(F)F)c1ncc(-c2ccc3nc(NC(=O)C4CC4)cn3c2)s1 [Example 22, 5-(2-(cyclopropanecarboxamido)imidazo[1,2-a]pyridin-6-yl)-N-(2,2,2-trifluoroethyl)thiazole-2-carboxamide]"
0.398,–,"Cc1sc(C(=O)NCC(F)(F)F)nc1-c1ccc2nc(NC(=O)C3CC3)cn2c1 [Example 31, 4-(2-(cyclopropanecarboxamido)imidazo[1,2-a]pyridin-6-yl)-5-methyl-N-(2,2,2-trifluoroethyl)thiazole-2-carboxamide]"
0.794,–,"O=C(NCC(F)F)c1ccn(-c2ccc3nc(NC(=O)C4CC4)cn3n2)n1 [Example 37, 1-(2-(cyclopropanecarboxamido)imidazo[1,2-b]pyridazin-6-yl)-N-(2,2-difluoroethyl)-1H-pyrazole-3-carboxamide]"
0.0631,–,"O=C(NCC(F)(F)F)c1cn(-c2ccc3nc(NC(=O)C4CC4)cn3c2)cn1 [Example 41, 1-(2-(cyclopropanecarboxamido)imidazo[1,2-a]pyridin-6-yl)-N-(2,2,2-trifluoroethyl)-1H-imidazole-4-carboxamide]"
0.794,–,"COC1CCN(C(=O)c2cc(-c3ccc4nc(NC(=O)C5CC5)cn4c3)cs2)CC1 [Example 58, N-(6-(5-(4-methoxypiperidine-1-carbonyl)thiophen-3-yl)imidazo[1,2-a]pyridin-2-yl)cyclopropanecarboxamide]"
0.631,–,"NC(=O)[C@@H]1CC(F)(F)CN1C(=O)c1cc(-c2ccc3nc(NC(=O)C4CC4)cn3c2)cs1 [Example 82, (S)-1-(4-(2-(cyclopropanecarboxamido)imidazo[1,2-a]pyridin-6-yl)thiophene-2-carbonyl)-4,4-difluoropyrrolidine-2-carboxamide]"
0.398,–,"O=C(NCCO)c1nc(-c2ccc3nc(NC(=O)C4CC4)cn3c2)cs1 [Example 95, 4-(2-(cyclopropanecarboxamido)imidazo[1,2-a]pyridin-6-yl)-N-(2-hydroxyethyl)thiazole-2-carboxamide]"
0.251,–,"O=C1CC(NC(=O)c2nc(-c3ccc4nc(NC(=O)C5CC5)cn4c3)cs2)CN1 (centres unmarked) [Example 99, 4-(2-(cyclopropanecarboxamido)imidazo[1,2-a]pyridin-6-yl)-N-(5-oxopyrrolidin-3-yl)thiazole-2-carboxamide]"
0.2,–,"O=C(Nc1cn2cc(-c3csc(C(=O)N4CCC(CO)C4)n3)ccc2n1)C1CC1 (centres unmarked) [Example 100, N-(6-(2-(3-(hydroxymethyl)pyrrolidine-1-carbonyl)thiazol-4-yl)imidazo[1,2-a]pyridin-2-yl)cyclopropanecarboxamide]"
0.631,–,"COC1CN(C(=O)c2nc(-c3ccc4nc(NC(=O)C5CC5)cn4c3)cs2)C1 [Example 101, N-(6-(2-(3-methoxyazetidine-1-carbonyl)thiazol-4-yl)imidazo[1,2-a]pyridin-2-yl)cyclopropanecarboxamide]"

SMILES,IC50 (Full length human TBK1) [µM],EC50 (TBK1) [µM]
"O=C(CF)Nc1cn2cc(-c3csc(C(=O)NCC(F)(F)F)c3)ccc2n1 [Example 16, 4-(2-(2-fluoroacetamido)imidazo[1,2-a]pyridin-6-yl)-N-(2,2,2-trifluoroethyl)thiophene-2-carboxamide]",0.0794,1.05
